The assay concerns Plasmodium falciparum 3D7. Put plainly: P. falciparum 3D7 asexual blood stage assay, Assay Procedure Version 1 (SYBR green readout). The format is cell-based. Conditions: 3D7, Erythrocyte, Version 1 of the assay procedure (no asterisk), 72 h incubation in infected erythrocytes, 10,000 nM to 0.51 nM. Put shortly: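 Erythrocytes at 5% haematocrit, 0.5% parasitaemia, exposed 72 h at 37° C (1% O2, 3% CO2) to 10-point 3-fold titrations, 10,000–0.51 nM final in 0.5% DMSO. SYBR green in lysis buffer overnight, fluorescence 485/528 nm; % inhibition versus controls, EC50 from 4-parameter fit.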
Regarding `Cc1cccc(Nc2cccc([C@]3(C)CC(=O)N(C4CCOCC4)C(=N)N3)c2Cl)c1` [Example 8, (6S)-6-[2-Chloro-3-(3-methyl-anilino)phenyl]-2-imino-6-methyl-3-(tetrahydropyran-4-yl)hexahydropyrimidin-4-one], the IC50 turned out to be 0.33 µM.

With `C[C@@]1(c2cccc(Nc3ccc(C#N)c(Cl)c3)c2Cl)CC(=O)N(C2CCOCC2)C(=N)N1` [Example 24, 2-Chloro-4-{2-chloro-3-[(4S)-2-imino-4-methyl-6-oxo-1-(tetrahydropyran-4-yl)-hexahydropyrimidin-4-yl]-anilino}benzonitrile], the IC50 amounted to 1.67 µM.

Turning to `C[C@@]1(c2cccc(Nc3cccc(C(F)(F)F)c3)c2Cl)CC(=O)N(C2CCOCC2)C(=N)N1` [Example 163, (6S)-6-{2-Chloro-3-[3-(trifluoromethyl)anilino]-phenyl}-2-imino-6-methyl-3-(tetrahydropyran-4-yl)-hexahydropyrimidin-4-one], the midpoint of inhibition, the IC50, lay at 0.913 µM.

`C[C@@]1(c2cccc(Nc3ccc(F)cc3)c2Cl)CC(=O)N(C2CCCOC2)C(=N)N1` (single isomer, unassigned) [Example 189, (6S)-6-[2-Chloro-3-(4-fluoro-anilino)phenyl]-2-imino-6-methyl-3-[(3S*)-tetrahydro-pyran-3-yl]hexahydropyrimidin-4-one] gave an IC50 of 0.82 µM.

As for `C[C@@]1(c2cccc(Nc3ccccc3Cl)c2Cl)CC(=O)N(C2CCOCC2)C(=N)N1` [Example 15, (6S)-6-[2-Chloro-3-(2-chloro-anilino)phenyl]-2-imino-6-methyl-3-(tetrahydropyran-4-yl)hexahydropyrimidin-4-one], the IC50 came out at 1.53 µM.

Regarding `C[C@@]1(c2cccc(Nc3ccccc3)c2Cl)CC(=O)N(C2CCOCC2)C(=N)N1` [Example 2, (6S)-6-(3-Anilino-2-chloro-phenyl)-2-imino-6-methyl-3-(tetrahydropyran-4-yl)-hexahydropyrimidin-4-one], the half-inhibitory concentration (IC50) was 0.15 µM.

For `C[C@@]1(c2cccc(Nc3cccc(C#N)c3)c2Cl)CC(=O)N(C2CCOCC2)C(=N)N1` [Example 9, 3-{2-Chloro-3-[(4S)-2-imino-4-methyl-6-oxo-1-(tetrahydro-pyran-4-yl)hexahydropyrimidin-4-yl]anilino}benzonitrile], the half-maximal inhibitory concentration (IC50) was found to be 0.333 µM.
